Data reported in patent publication US20260234124A1, “Substituted Pyrazolyl-Pyridinyl Compounds as Ligand Directed Degraders of IRAK3” (Celgene Corporation, priority 2022, published 2026).

How the values were obtained:
[1] = target: T1, IRAK3 (Homo sapiens, UniProt Q9Y616); experiment: IRAK3 biochemical binding assay (LanthaScreen Eu Kinase Binding, TR-FRET); conditions: 10 nM tracer, 10 nM IRAK3, 1 hour at room temperature
T1 sequence (Q9Y616 1-596): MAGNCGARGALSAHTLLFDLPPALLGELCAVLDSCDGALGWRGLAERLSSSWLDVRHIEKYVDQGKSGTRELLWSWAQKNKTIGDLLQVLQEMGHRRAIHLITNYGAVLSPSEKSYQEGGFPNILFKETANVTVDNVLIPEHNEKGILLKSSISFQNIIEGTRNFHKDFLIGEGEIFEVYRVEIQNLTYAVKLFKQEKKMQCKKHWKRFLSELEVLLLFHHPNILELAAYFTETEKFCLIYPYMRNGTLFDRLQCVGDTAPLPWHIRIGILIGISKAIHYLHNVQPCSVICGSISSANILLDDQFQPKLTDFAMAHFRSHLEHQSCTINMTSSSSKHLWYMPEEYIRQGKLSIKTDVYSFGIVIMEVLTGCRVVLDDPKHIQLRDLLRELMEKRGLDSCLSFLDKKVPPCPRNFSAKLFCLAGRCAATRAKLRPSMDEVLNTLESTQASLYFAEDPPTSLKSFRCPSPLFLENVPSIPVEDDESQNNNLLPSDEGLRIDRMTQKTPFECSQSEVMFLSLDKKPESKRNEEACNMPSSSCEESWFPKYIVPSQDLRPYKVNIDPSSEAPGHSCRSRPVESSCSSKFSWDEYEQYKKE
Method: Example B3. IRAK3 Biochemical Binding Assay
The LanthaScreen® Eu Kinase Binding assay was performed as described by the vendor (ThermoFisher Scientific Waltham, MA). Briefly, 100× solutions of compound were prepared in DMSO via serial dilution of the 10 mM stock solution in a 384-well reagent plate using 3-fold intervals to achieve final concentrations. 1 μL of the compound dilution series were added to the corresponding wells of a 384-well reagent plate containing 32.3 μL of 1× buffer (50 mM HEPES pH 7.4, […], 1 mM EGTA, 0.01% Brij-35). 5 μL of the buffer diluted compounds were transferred to the corresponding wells of a 384-well assay plate. 5 μL of 3× tracer was transferred to each well of the assay plate for a final tracer concentration of 10 nM. Finally, 5 μL of the 3× Eu-Anti-GST and IRAK3 mix was transferred to each well for a final concentration of 2 nM and 10 nM, respectively. Reactions were allowed to incubate for 1 hour at room temperature. TR-FRET signal of the interaction ([…]/λem 665/λem 615) was read at room temperature with a delay time of 100 μs and an integration time of 200 μs using an Envision plate reader. Background corrected emission signal ratios at each compound concentration were used to calculate percentage of inhibition (% o Inhibition). Plots of % Inhibition versus inhibitor concentrations were fit according to a dose-response equation (Eq. 1) to generate IC50 and Hill slope values using Dotmatics software (Dotmatics, Bishops Storford, Hertfordshire, England).
Using these assays, IC50, Dmax, EC50, and DC50 values of the following compounds were determined. Dmax is defined as the maximum percent degradation achieved and DC50 is the concentration at which 50% degradation is achieved.

[2] = target: T1, IRAK3; experiment: IRAK endogenous HTRF degradation assay (Total-IRAK3 HTRF kit); type: cell-based; set-up: IRAK Endogenous HTRF Degradation Assay; endogenous in cells; conditions: endogenous IRAK3, overnight incubation; % Dmax = 100 − Ymin
Outline: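 About 50k cells per well treated overnight with 3-fold serial dilutions of compound. Total IRAK3 measured in lysates by HTRF (665/615 nm ratio × 10,000), normalised to DMSO as 100%. EC50 from a four-parameter logistic fit; Dmax = 100 − Ymin, where Ymin is the lowest % IRAK3 remaining.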

SMILES	IC50 [1] [nM]	Dmax [2] [%]
C[C@@H](Oc1cc(-c2cnn(C3CCN(CCOCCOCCOCCOCCNC(=O)COc4ccc5c(c4)C(=O)N(C4CCC(=O)NC4=O)C5=O)CC3)c2)cnc1N)c1c(Cl)ccc(F)c1Cl (stereo partly drawn) [Compound 17, N-(14-(4-(4-(6-amino-5-((R)-1-(2,6-dichloro-3-fluorophenyl)ethoxy)pyridin-3-yl)-1H-pyrazol-1-yl)piperidin-1-yl)-3,6,9,12-tetraoxatetradecyl)-2-((2-(2,6-dioxopiperidin-3-yl)-1,3-dioxoisoindolin-5-yl)oxy)acetamide]	100	32
C[C@@H](Oc1cc(-c2cnn(C3CCN(CCOCCOCCOCCNC(=O)COc4cccc5c4C(=O)N(C4CCC(=O)NC4=O)C5=O)CC3)c2)cnc1N)c1c(Cl)ccc(F)c1Cl (stereo partly drawn) [Compound 11, N-(2-(2-(2-(2-(4-(4-(6-amino-5-((R)-1-(2,6-dichloro-3-fluorophenyl)ethoxy)pyridin-3-yl)-1H-pyrazol-1-yl)piperidin-1-yl)ethoxy)ethoxy)ethoxy)ethyl)-2-((2-(2,6-dioxopiperidin-3-yl)-1,3-dioxoisoindolin-4-yl)oxy)acetamide]	95	38
C[C@@H](Oc1cc(-c2cnn(C3CCN(CCNC(=O)COc4ccc5c(c4)C(=O)N(C4CCC(=O)NC4=O)C5=O)CC3)c2)cnc1N)c1c(Cl)ccc(F)c1Cl (stereo partly drawn) [Compound 13, N-(2-(4-(4-(6-amino-5-((R)-1-(2,6-dichloro-3-fluorophenyl)ethoxy)pyridin-3-yl)-1H-pyrazol-1-yl)piperidin-1-yl)ethyl)-2-((2-(2,6-dioxopiperidin-3-yl)-1,3-dioxoisoindolin-5-yl)oxy)acetamide]	16	65
